Here are results for 65 compounds from US9688669B2, “Oxazolidinones as modulators of mGluR5” (BRISTOL-MYERS SQUIBB COMPANY, priority 2013, dated 2017).

pEC50: −log10 of the molar value.

The target of the test is human mGluR5A (Homo sapiens (Human), UniProt P41594). Put plainly: mGluR5 FLIPR Assay. To be noted: positive modulator activity, HEK293 (ZF) cells with human mGluR5A and rat GLAST, Ca++ response to ~EC10 l-glutamate. It is filed as cell-based. Here is the method: HEK293 (ZF) cells stably transfected with human mGluR5A (pIRES neo) and the rat glutamate-aspartate transporter (GLAST; pIRES puro) are grown in a monolayer culture at 37° C. in 5% CO2 and fed with Minimum Essential Medium (MEM) supplemented with 10% dialysed fetal bovine serum. […] Plates are incubated in dye at 37° C. in 5% CO2 for 60 minutes prior to delivery of test compounds in assay buffer. Test compounds are incubated with cells in the presence of dye for 10 minutes prior to being read on the FLIPR platform (Molecular Devices). A Ca^++ signal is induced in the assay plates via the delivery of an ˜EC10 concentration of the endogenous agonist 1-glutamate; images are acquired at 1 Hz for 100 seconds post-delivery of agonist stimulus. Positive modulator activity (i.e. the ability of test compounds to increase the Ca^++ response to a sub-maximal concentration of agonist) is normalized to a saturating concentration of a known mGluR5 PAM run in each assay plate. An EC50 concentration of test compounds is derived from 4-parameter logistic curve fits of transformed fluoresence data via proprietary software suite.
Chain of human mGluR5A (P41594 other isoform, or with tags, fused parts or gaps): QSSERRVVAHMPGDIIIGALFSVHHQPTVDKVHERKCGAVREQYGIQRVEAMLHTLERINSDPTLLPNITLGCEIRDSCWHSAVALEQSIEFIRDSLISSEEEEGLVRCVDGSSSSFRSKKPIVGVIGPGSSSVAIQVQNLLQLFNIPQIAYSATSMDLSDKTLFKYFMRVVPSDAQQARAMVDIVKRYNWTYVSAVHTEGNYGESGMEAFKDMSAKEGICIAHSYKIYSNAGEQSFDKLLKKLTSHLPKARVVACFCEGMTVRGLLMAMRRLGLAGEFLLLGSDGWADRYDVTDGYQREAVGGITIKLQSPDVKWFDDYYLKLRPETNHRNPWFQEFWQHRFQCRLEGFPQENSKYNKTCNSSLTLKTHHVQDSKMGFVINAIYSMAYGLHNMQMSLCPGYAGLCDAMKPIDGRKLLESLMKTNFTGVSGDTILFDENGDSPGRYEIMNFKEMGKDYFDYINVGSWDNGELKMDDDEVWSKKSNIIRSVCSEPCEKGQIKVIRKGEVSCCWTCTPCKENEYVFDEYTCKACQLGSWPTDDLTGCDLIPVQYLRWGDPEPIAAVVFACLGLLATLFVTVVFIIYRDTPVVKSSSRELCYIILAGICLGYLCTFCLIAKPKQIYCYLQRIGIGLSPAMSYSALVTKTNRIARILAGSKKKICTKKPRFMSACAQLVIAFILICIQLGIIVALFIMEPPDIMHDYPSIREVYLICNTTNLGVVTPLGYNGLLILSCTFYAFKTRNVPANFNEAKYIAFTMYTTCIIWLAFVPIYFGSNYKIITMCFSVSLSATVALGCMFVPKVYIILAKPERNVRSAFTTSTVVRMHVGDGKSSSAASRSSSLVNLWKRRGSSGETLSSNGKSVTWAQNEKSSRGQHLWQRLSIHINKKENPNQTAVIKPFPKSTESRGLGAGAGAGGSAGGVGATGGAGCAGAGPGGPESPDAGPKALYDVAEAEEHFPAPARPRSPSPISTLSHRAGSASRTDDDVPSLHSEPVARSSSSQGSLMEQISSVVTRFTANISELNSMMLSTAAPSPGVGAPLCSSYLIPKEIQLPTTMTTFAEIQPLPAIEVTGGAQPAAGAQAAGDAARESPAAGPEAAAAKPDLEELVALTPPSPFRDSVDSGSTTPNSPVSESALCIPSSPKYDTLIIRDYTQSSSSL

`CC(O)CCC#Cc1cncc([C@H]2NC(=O)O[C@@H]2c2cccc(F)c2)c1` (single isomer, unassigned) [Example 7] had a pEC50 of 8.23. In the case of `CCCC(O)C#Cc1cncc([C@H]2NC(=O)O[C@@H]2c2cccc(F)c2)c1` (single isomer, unassigned) [Example 15], the pEC50 was 7.69. `CCC(O)CC#Cc1cncc([C@H]2NC(=O)O[C@@H]2c2cccc(F)c2)c1` (single isomer, unassigned) [Example 19] gave a negative logarithm of the EC50 (pEC50) of 7.56. `CCC(O)CC#Cc1cncc([C@H]2NC(=O)O[C@@H]2c2cccc(F)c2)c1` (single isomer, unassigned) [Example 20] showed a pEC50 of 7.22. `CCCC(O)C#Cc1cncc([C@H]2NC(=O)O[C@@H]2c2cccc(F)c2)c1` (single isomer, unassigned) [Example 22] showed a negative logarithm of the EC50 (pEC50) of 7.49. Regarding `O=C1N[C@H](c2cncc(C#CC(O)C3CC3)c2)[C@@H](c2cccc(F)c2)O1` (single isomer, unassigned) [Example 57], the pEC50 was 7.11. The compound `O=C1N[C@H](c2cncc(C#CC(O)C3CC3)c2)[C@@H](c2cccc(F)c2)O1` (single isomer, unassigned) [Example 59] had a pEC50 of 6.65. Regarding `O=C1N[C@H](c2cncc(C#CC(O)CC3CC3)c2)[C@@H](c2cccc(F)c2)O1` (single isomer, unassigned) [Example 73], the pEC50 is 7.55.

The compound `O=C1N[C@H](c2cncc(C#CC(O)CC3CC3)c2)[C@@H](c2cccc(F)c2)O1` (single isomer, unassigned) [Example 74] had a pEC50 of 7.56. On to `O=C1N[C@H](c2cncc(C#CCC3CCC3)c2)[C@@H](c2cccc(F)c2)O1` [Example 1, (4R,5R)-4-(5-(3-Cyclobutylprop-1-yn-1-yl)pyridin-3-yl)-5-(3-fluorophenyl)oxazolidin-2-one], for which the negative logarithm of the EC50 (pEC50) is 8.77. `CCSCC#Cc1cncc([C@H]2NC(=O)O[C@@H]2c2cccc(F)c2)c1` [Example 2] showed a negative-log EC50 (pEC50) of 8.70. The compound `CCCCC#Cc1cncc([C@H]2NC(=O)O[C@@H]2c2cccc(F)c2)c1` [Example 3] had a negative-log EC50 (pEC50) of 8.66. `O=C1N[C@H](c2cncc(C#CCC3CC3)c2)[C@@H](c2cccc(F)c2)O1` [Example 4] showed a negative-log EC50 (pEC50) of 8.44.

In turn, `CC(C)CCC#Cc1cncc([C@H]2NC(=O)O[C@@H]2c2cccc(F)c2)c1` [Example 5] gave a pEC50 of 8.33. Compound `CCCC#Cc1cncc([C@H]2NC(=O)O[C@@H]2c2cccc(F)c2)c1` [Example 6] gave a pEC50 of 8.28. This pEC50 and that of the compound before are within 0.2 log units of each other. In turn, `CC(O)CCC#Cc1cncc([C@H]2NC(=O)O[C@@H]2c2cccc(F)c2)c1` (some centres unmarked) [Example 8] gave a pEC50 of 7.91.

Compound `CC(C)CC#Cc1cncc([C@H]2NC(=O)O[C@@H]2c2cccc(F)c2)c1` [Example 9] gave a negative-log EC50 (pEC50) of 7.94. This pEC50 and that of the compound before are within 0.2 log units of each other. For the compound `CC(O)CCC#Cc1cncc([C@H]2NC(=O)O[C@@H]2c2cccc(F)c2)c1` (some centres unmarked) [Example 10], the negative-log EC50 (pEC50) was 7.90. In the case of `O=C1N[C@H](c2cncc(C#CCC3CCOCC3)c2)[C@@H](c2cccc(F)c2)O1` [Example 11] it was 7.87; in that of `CCCC(O)C#Cc1cncc([C@H]2NC(=O)O[C@@H]2c2cccc(F)c2)c1` (some centres unmarked) [Example 12], 7.81. For the compound `O=C1N[C@H](c2cncc(C#CCC3CCCCC3)c2)[C@@H](c2cccc(F)c2)O1` [Example 13], the negative logarithm of the EC50 (pEC50) is 7.79. `O=C1N[C@H](c2cncc(C#CC(O)C3CCC3)c2)[C@@H](c2cccc(F)c2)O1` (some centres unmarked) [Example 14]: the negative-log EC50 (pEC50) was 7.78.

In turn, `CCC(C)(O)C#Cc1cncc([C@H]2NC(=O)O[C@@H]2c2cccc(F)c2)c1` (some centres unmarked) [Example 16] gave a pEC50 of less than 5.49. To `COCCC#Cc1cncc([C@H]2NC(=O)O[C@@H]2c2cccc(F)c2)c1` [Example 17] belongs 7.63; to `CCC(O)CC#Cc1cncc([C@H]2NC(=O)O[C@@H]2c2cccc(F)c2)c1` (some centres unmarked) [Example 21], 7.53; to `CCCC(C)C#Cc1cncc([C@H]2NC(=O)O[C@@H]2c2cccc(F)c2)c1` (some centres unmarked) [Example 23], 7.36. `O=C1N[C@H](c2cncc(C#CCOc3ccccc3)c2)[C@@H](c2cccc(F)c2)O1` [Example 24] had a negative logarithm of the EC50 (pEC50) of 7.36. `CC(C)CC(O)C#Cc1cncc([C@H]2NC(=O)O[C@@H]2c2cccc(F)c2)c1` (some centres unmarked) [Example 25] showed a negative logarithm of the EC50 (pEC50) of 7.34. To `Cc1ccn(CC#Cc2cncc([C@H]3NC(=O)O[C@@H]3c3cccc(F)c3)c2)n1` [Example 26] belongs 7.34; to `O=C1N[C@H](c2cncc(C#CCn3cc(Cl)cn3)c2)[C@@H](c2cccc(F)c2)O1` [Example 27], 7.32. `CC(C)C(O)C#Cc1cncc([C@H]2NC(=O)O[C@@H]2c2cccc(F)c2)c1` (some centres unmarked) [Example 28] showed a negative-log EC50 (pEC50) of 7.11.

In the case of `O=C1N[C@H](c2cncc(C#CCC3CC3(F)F)c2)[C@@H](c2cccc(F)c2)O1` (some centres unmarked) [Example 29], the negative-log EC50 (pEC50) is 7.11. In turn, `O=C1N[C@H](c2cncc(C#CC(O)C3CCCCC3)c2)[C@@H](c2cccc(F)c2)O1` (some centres unmarked) [Example 30] showed a pEC50 of 7.07. As for `Cc1ccnn1CC#Cc1cncc([C@H]2NC(=O)O[C@@H]2c2cccc(F)c2)c1` [Example 31], the pEC50 is 6.97. The compound `CCC(O)C#Cc1cncc([C@H]2NC(=O)O[C@@H]2c2cccc(F)c2)c1` (some centres unmarked) [Example 32] showed a pEC50 of 6.94. With `O=C1N[C@H](c2cncc(C#CCn3ccnc3)c2)[C@@H](c2cccc(F)c2)O1` [Example 33], the negative-log EC50 (pEC50) is 6.87. In the case of `CC(C)(C)OCC#Cc1cncc([C@H]2NC(=O)O[C@@H]2c2cccc(F)c2)c1` [Example 34] it was 6.61. `N#CCCC#Cc1cncc([C@H]2NC(=O)O[C@@H]2c2cccc(F)c2)c1` [Example 35] showed a negative logarithm of the EC50 (pEC50) of 6.59. The compound `O=C1N[C@H](c2cncc(C#CCN3CCOCC3)c2)[C@@H](c2cccc(F)c2)O1` [Example 36] had a negative logarithm of the EC50 (pEC50) of 6.54. `COCC(O)CC#Cc1cncc([C@H]2NC(=O)O[C@@H]2c2cccc(F)c2)c1` (some centres unmarked) [Example 37] had a pEC50 of 6.42. The pEC50 values of the last two compounds are within 0.2 log units of each other. Compound `O=C1N[C@H](c2cncc(C#CCOC3CCCCO3)c2)[C@@H](c2cccc(F)c2)O1` (some centres unmarked) [Example 38] had a negative logarithm of the EC50 (pEC50) of 6.30. Compound `O=C1N[C@H](c2cncc(C#CC3(O)CCCC3)c2)[C@@H](c2cccc(F)c2)O1` [Example 39] gave a negative-log EC50 (pEC50) of 6.29. In the case of `CC(C)(O)CC#Cc1cncc([C@H]2NC(=O)O[C@@H]2c2cccc(F)c2)c1` [Example 40], the pEC50 is 6.29.

As to `O=C1N[C@H](c2cncc(C#CCN3CCCCC3)c2)[C@@H](c2cccc(F)c2)O1` [Example 41], the negative-log EC50 (pEC50) was 6.14. In the case of `CC(O)CC#Cc1cncc([C@H]2NC(=O)O[C@@H]2c2cccc(F)c2)c1` (some centres unmarked) [Example 42], the pEC50 was less than 5.79. In turn, `O=C1N[C@H](c2cncc(C#CCc3ccccc3)c2)[C@@H](c2cccc(F)c2)O1` [Example 43] gave a pEC50 of less than 5.79. In the case of `CN(C)CCC#Cc1cncc([C@H]2NC(=O)O[C@@H]2c2cccc(F)c2)c1` [Example 44], the pEC50 is less than 5.79. Consider `CC(=O)NCC#Cc1cncc([C@H]2NC(=O)O[C@@H]2c2cccc(F)c2)c1` [Example 45], for which the negative-log EC50 (pEC50) was less than 5.79. For the compound `O=C1N[C@H](c2cncc(C#CCC3(O)CCC3)c2)[C@@H](c2cccc(F)c2)O1` [Example 46], the negative logarithm of the EC50 (pEC50) is less than 5.79. Take `O=C1N[C@H](c2cncc(C#CCN3CCCC3=O)c2)[C@@H](c2cccc(F)c2)O1` [Example 47]: the negative-log EC50 (pEC50) is less than 5.79. For `O=C1N[C@H](c2cncc(C#CCNC(=O)C(F)(F)F)c2)[C@@H](c2cccc(F)c2)O1` [Example 48], the pEC50 is less than 5.79. Regarding `O=C1N[C@H](c2cncc(C#CCn3ncc4ccccc43)c2)[C@@H](c2cccc(F)c2)O1` [Example 49], the pEC50 is less than 5.79. In the case of `CC(C)C#Cc1cncc([C@H]2NC(=O)O[C@@H]2c2cccc(F)c2)c1` [Example 50] it was less than 5.49.

Turning to `CCCCCC#Cc1cncc([C@H]2NC(=O)O[C@@H]2c2cccc(F)c2)c1` [Example 51], the pEC50 was 8.09. For `O=C1N[C@H](c2cncc(C#CCOCC(F)(F)F)c2)[C@@H](c2cccc(F)c2)O1` [Example 52], the pEC50 was 8.03. This pEC50 and that of the compound before are within 0.2 log units of each other.

The compound `CCOCC#Cc1cncc([C@H]2NC(=O)O[C@@H]2c2cccc(F)c2)c1` [Example 53] had a pEC50 of 7.79. `Cc1cnn(CC#Cc2cncc([C@H]3NC(=O)O[C@@H]3c3cccc(F)c3)c2)c1` [Example 54] gave a pEC50 of 6.97. In the case of `CCOCCC#Cc1cncc([C@H]2NC(=O)O[C@@H]2c2cccc(F)c2)c1` [Example 55] it was 7.56; in that of `CCCCC(O)C#Cc1cncc([C@H]2NC(=O)O[C@@H]2c2cccc(F)c2)c1` (some centres unmarked) [Example 56], 7.17; in that of `O=C1N[C@H](c2cncc(C#CC(O)C3CC3)c2)[C@@H](c2cccc(F)c2)O1` (some centres unmarked) [Example 58], 6.69.

Consider `COCC#Cc1cncc([C@H]2NC(=O)O[C@@H]2c2cccc(F)c2)c1` [Example 60], for which the pEC50 is 6.34. Take `CC(C)(C)C#Cc1cncc([C@H]2NC(=O)O[C@@H]2c2cccc(F)c2)c1` [Example 61]: the negative-log EC50 (pEC50) was less than 5.49. In the case of `O=C1N[C@H](c2cncc(C#CCn3cccn3)c2)[C@@H](c2cccc(F)c2)O1` [Example 62] it was 7.96; in that of `O=C1N[C@H](c2cncc(C#CCC3CCCO3)c2)[C@@H](c2cccc(F)c2)O1` (some centres unmarked) [Example 63], 7.91; in that of `O=C1N[C@H](c2cncc(C#CCC3CCOC3)c2)[C@@H](c2cccc(F)c2)O1` (some centres unmarked) [Example 64], 7.70.

For orientation: pEC50 means the EC50 on a negative log10 scale, so that one unit is a factor of ten.
